Measured values from article PMC11121495, “Blap-6, a Novel Antifungal Peptide from the Chinese Medicinal Beetle Blaps rhynchopetera against Cryptococcus neoformans” (International Journal of Molecular Sciences, 2024).
Where no end group is shown, it is not given here.

What was measured:
C. neoformans = experiment: microbe, parasite or virus in culture; format: cell-based, Cryptococcus neoformans (ATCC 32045)
From the text: (§1) These standard strains of Escherichia coli (E. coli, ATCC 8739), Staphylococcus aureus (S. aureus, ATCC 6538), Pseudomonas aeruginosa (P. aeruginosa, ATCC 27853), Acinetobacter baumannii (A. baumannii, ATCC 1968), Candida albicans (ATCC 10231), and the clinical strain of Methicillin-resistant Staphylococcus aureus (MRSA, MRSA-Z) were obtained from Kunming Medical University. The standard strain of C. neoformans (ATCC 32045) was purchased from Shanghai Yingxin Laboratory Co., Ltd. (CAS NO. YXJ50058). Different strains of E. coli, S. aureus, MRSA, P. aeruginosa, and A. baumannii were cultured with shaking at 37 °C in Luria–Bertani (LB) medium. C. neoformans was cultured at 35 °C in Sabouraud Dextrose Agar (SDA) medium according to the manufacturer’s instructions.
(§2) According to Clinical and Laboratory Standards Institute (CLSI) protocols, the minimum inhibitory concentration (MIC) is the minimum drug concentration at which antibiotics inhibit the growth and reproduction of strains. The different strains were grown in their corresponding media at 35 °C or 37 °C until they entered the exponential growth phase. Fluconazole and amphotericin B were used as positive controls, and sterile 0.9% NaCl was used as a negative control. The peptides were diluted to various concentrations in sterile saline. According to 1 OD = 1 × 10^9 CFU/mL, the above bacterial solution was diluted to 2 × 10^5 CFU/mL with the corresponding medium. In advance, 100 μL of normal saline was added to a sterile 96-well plate, and 200 μL of the sample to be tested was added to the first well. The sample to be tested was subjected to double gradient dilution, and then 100 μL of bacterial solution with a concentration of 2 × 10^5 was added to each well. It was cultured at 35 °C or 37 °C for different times. The light absorption value of the bacterial solution at 600 nm was detected by a microplate reader (Epoch Etock, Biotek, Winooski, VT, USA), and the average concentration of the samples in the pores and adjacent pores that could not detect microbial growth was used as the MIC value.

E. coli = experiment: microbe, parasite or virus in culture; format: cell-based, Escherichia coli (ATCC 8739)
From the text: as §1, §2

MRSA = experiment: microbe, parasite or virus in culture; format: cell-based
From the text: as §1, §2

S. aureus = experiment: microbe, parasite or virus in culture; format: cell-based, Staphylococcus aureus (ATCC 6538)
From the text: as §1, §2

C. neoformans ATCC 32045 = experiment: Fungal-killing kinetics; format: cell-based, Cryptococcus neoformans; settings: 10 × MIC; 1 × 10^6 CFU/mL, SDB, 37 °C, colony count
Description: The single colony of C. neoformans ATCC 32045 was selected and cultured at 180 rpm and 37 °C, washed three times with normal saline, and then resuspended, and the fungal solution was diluted to 1 × 10^6 CFU/mL with SDB medium. The positive control was fluconazole, and the negative control was normal saline. […] The fungal liquid after adding the sample was quickly put into the 37 °C constant temperature incubator, and the shaking culture was carried out at 180 rpm. […] The plate was placed in a constant temperature incubator for inverted culture for 72 h at 37 °C, and then the single colony on the plate was counted.

trypsin = experiment: in vitro; format: in vitro ADME
Description: (§3) For investigating the impact of protease on blap-6, trypsin and chymotrypsin were chosen as the enzymes to be studied in the experiment. […] Then these samples (including blap-6 as a standard) were detected by high-performance liquid chromatography (HPLC, Waters, Milford, MA, USA) on a C18 column (4.6 mm × 250 mm, Waters, USA). Solvent A was ultrapure water, and solvent B was acetonitrile. The flow rate was 0.5 mL/min, and the detection wavelength was 280 nm. The column was balanced with 95% solvent A in 0-3 min and eluted with 95-40% solvent A in 3-10 min, 40-5% solvent A in 10-15 min, and 5-95% solvent A in 15-20 min. The degradation rate was calculated by the peak area of the HPLC.

in vitro = in vitro ADME
Description: as §3

[1] = test system: C. neoformans ATCC 32045 biofilm; experiment: Biofilm inhibition (crystal violet); format: cell-based, Cryptococcus neoformans; settings: 1 × MIC, 48 h, 37 °C, A600, dose-dependent
Description: The single colony of C. neoformans ATCC 32045 was selected and cultured at 180 rpm and 37 °C. The physiological saline was washed three times and then re-suspended. The fungal concentration was adjusted to 1 × 10^6 CFU/mL, and then 100 μL of the fungal solution was added to each hole in the 96-well plate. The samples to be tested were diluted with sterile saline to 0.5×, 1×, 2×, 4×, and 8 × MIC, and 100 μL was added to the 96-well plate and mixed well. Three replicate wells were set for each concentration. The negative control group was added to the same volume of sterile saline. The positive control group was added with 10 μM fluconazole and amphotericin B, respectively, and the above group was incubated in a 37 °C incubator for 48 h. After that, the supernatant was discarded and washed with sterile PBS three times, 1 min each time. And then, 99% methanol was added and fixed for 5 min. After staining with 100 μL 0.1% crystal violet for 5 min, the plate was washed with PBS, and 100 μL 95% ethanol was added. The absorbance at 600 nm was detected by a microplate reader.

C. albicans = experiment: microbe, parasite or virus in culture; format: cell-based, Candida albicans (ATCC 10231)
From the text: as §1, §2

## KRCRFRIYRWGFPRRRF [blap-6]
C. neoformans
  MIC: 0.81 µM
E. coli
  MIC: 9.77 µM
MRSA
  MIC: 4.89 µM
S. aureus
  MIC: 9.77 µM
C. neoformans ATCC 32045
  time within which all the fungi were killed: ≤ 30 min
trypsin
  degradation with trypsin: began to degrade
In vitro; isolated enzyme chymotrypsin
  half-life at 2.44 mg/mL: ~5 h
  metabolised at 1 h, 2.44 mg/mL: 19%
In vitro; isolated enzyme several chymotrypsin trypsin
  metabolised at 24 h, 2.44 mg/mL: 90%
In vitro; isolated enzyme trypsin
  half-life at 2.44 mg/mL: ~6 h
[1]
  inhibition of biofilm formation: significantly inhibited
C. albicans
  MIC: 1.22 µM
